Values of other authors, collected in patent publication US5110799A, “Antiherpetic agents” (Merck & Co., Inc., priority 1989, dated 1992).

Biological target: ribonucleotide reductase enzyme of herpes simplex virus (Human herpesvirus 1, UniProt P08543)
Conditions: in vitro; Dutia et al., Cohen et al., U.S. Pat. No. 4,795,740

Sequence of ribonucleotide reductase enzyme of herpes simplex virus (P08543 whole entry): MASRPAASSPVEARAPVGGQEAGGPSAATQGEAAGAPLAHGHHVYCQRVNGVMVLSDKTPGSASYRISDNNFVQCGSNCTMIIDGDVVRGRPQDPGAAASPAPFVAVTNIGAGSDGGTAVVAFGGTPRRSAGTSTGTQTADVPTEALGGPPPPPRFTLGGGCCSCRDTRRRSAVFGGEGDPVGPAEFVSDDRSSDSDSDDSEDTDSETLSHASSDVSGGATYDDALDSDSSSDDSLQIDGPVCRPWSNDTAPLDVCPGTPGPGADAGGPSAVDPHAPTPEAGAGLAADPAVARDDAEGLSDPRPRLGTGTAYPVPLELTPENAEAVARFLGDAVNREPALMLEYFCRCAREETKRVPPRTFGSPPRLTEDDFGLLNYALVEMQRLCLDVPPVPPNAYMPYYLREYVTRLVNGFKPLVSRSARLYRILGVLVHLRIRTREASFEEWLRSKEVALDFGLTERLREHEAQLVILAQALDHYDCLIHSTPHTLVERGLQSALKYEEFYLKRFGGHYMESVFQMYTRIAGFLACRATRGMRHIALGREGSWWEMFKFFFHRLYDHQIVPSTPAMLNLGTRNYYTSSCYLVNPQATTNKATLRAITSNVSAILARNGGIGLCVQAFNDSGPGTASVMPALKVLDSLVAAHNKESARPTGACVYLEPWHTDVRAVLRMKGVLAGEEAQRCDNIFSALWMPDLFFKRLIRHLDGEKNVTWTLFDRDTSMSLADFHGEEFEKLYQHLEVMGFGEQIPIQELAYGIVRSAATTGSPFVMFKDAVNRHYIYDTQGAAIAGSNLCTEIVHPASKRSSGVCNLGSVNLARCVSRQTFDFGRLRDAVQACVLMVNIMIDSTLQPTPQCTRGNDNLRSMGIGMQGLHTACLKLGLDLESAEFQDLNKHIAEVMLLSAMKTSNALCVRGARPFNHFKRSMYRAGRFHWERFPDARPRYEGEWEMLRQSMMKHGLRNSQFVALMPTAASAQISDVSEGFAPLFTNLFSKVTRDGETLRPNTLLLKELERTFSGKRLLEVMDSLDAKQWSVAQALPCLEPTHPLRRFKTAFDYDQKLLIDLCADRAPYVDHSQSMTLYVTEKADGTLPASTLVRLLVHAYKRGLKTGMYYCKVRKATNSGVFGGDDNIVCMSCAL

| Substance | inhibition of the activity of HSV ribonucleotide reductase |
| --- | --- |
| Tyr Ala Gly Ala Val Val Asn Asp Leu | inhibited in vitro the activity of this enzyme |
| Tyr gly Ala Val Val Asn Asp Leu | inhibited in vitro the activity of this enzyme |
